Consider ten molecules from ChEMBL document CHEMBL1133475, “Inhibitors of NF-kappaB and AP-1 gene expression: SAR studies on the pyrimidine portion of 2-chloro-4-trifluoromethylpyrimidine-5-[N-(3', 5'-bis(trifluoromethyl)phenyl)carboxamide]” (J Med Chem, 2000).

Structures are written as SMILES.

The series is filed under the species Homo sapiens. The series can be described thus: Compound was tested for permeability in Caco-2 cells by HPLC method. In kind it is ADME, cell-based. A general note: Caco-2 cells form a polarised layer with tight junctions and transporters.
In turn, `CCCc1nc(Cl)ncc1C(=O)Nc1cc(C(F)(F)F)cc(C(F)(F)F)c1` came in with a Permeability of 31 nm/s.
The same measure for `O=C(Nc1cc(C(F)(F)F)cc(C(F)(F)F)c1)c1cnc(F)nc1C(F)(F)F`: 19 nm/s; for `O=C(Nc1cc(C(F)(F)F)cc(C(F)(F)F)c1)c1cnc(Cl)nc1C(F)(F)C(F)(F)F`: 9 nm/s.
Next, `Cc1nc(Cl)ncc1C(=O)Nc1cc(C(F)(F)F)cc(C(F)(F)F)c1`: 62 nm/s.
Regarding `O=C(Nc1cc(C(F)(F)F)cc(C(F)(F)F)c1)c1cnc(Cl)nc1-c1cccs1`, the Permeability is 21 nm/s.
The same measure for `O=C(Nc1cc(C(F)(F)F)cc(C(F)(F)F)c1)c1cnc(Cl)nc1`: 61 nm/s; for `O=C(Nc1cc(C(F)(F)F)cc(C(F)(F)F)c1)c1cnc(Cl)nc1Cl`: 31 nm/s; for `O=C(Nc1cc(C(F)(F)F)cc(C(F)(F)F)c1)c1cnc(Cl)nc1-c1ccccc1`: 9 nm/s.
The molecule `CCc1nc(Cl)ncc1C(=O)Nc1cc(C(F)(F)F)cc(C(F)(F)F)c1` yielded a Permeability of 58 nm/s.
Next, `O=C(Nc1cc(C(F)(F)F)cc(C(F)(F)F)c1)c1cnc(Cl)nc1C(F)(F)F`: 11 nm/s.
